Converted amounts (≈) assume the structure as drawn. Read-outs that look alike come from different tables or passages of the source. Marks after values point to notes of the source that are not given here.
What was measured:
[1] = Saturation solubility in phosphate buffer with and without 10 % hydroxypropyl-β-cyclodextrin (MS 0.35); conditions: for Verh.S1 zu S2: given as 1: x; for solubility thermodynamic at 24 h: phosphate buffer
Method: A. Unter Verwendung einer 10 %-igen Hydroxypropyl-β-cyclodextrinlösung (MS 0.35) in Phosphatpufferlösung wurde unter denselben Bedingungen wie in Beispiel 1 die Sättigungslöslichkeit bei 25°C für verschiedene Arzneistoffe bestimmt. In Tabelle 1 sind die Sättigungslöslichkeit S1 in Phosphatpufferlösung und S2 in Phosphatpufferlösung unter Zusatz von 10 % Hydroxypropyl-β-cyclodextrin angegeben. Tabelle 1

[2] = Saturation solubility with and without 4 % hydroxypropyl-methyl-β-cyclodextrin (DS 0,96; MS 0,43); format: physicochemical
Description: B. In ähnlicher Weise wurde die Löslichkeit von Arzneistoffen in einer 4 %-igen wässrigen Lösung von Hydroxypropyl-methyl-β-cyclodextrin (DS = 0,96; MS = 0,43) untersucht. Die erhaltenen Ergebnisse sind in der nachfolgenden Tabelle 2 zusammengefaßt, wobei für jeden Arzneistoff das Verhältnis R von Sättigungslöslichkeit in Wasser bzw. beim angegebenen pH-Wert mit und ohne Zusatz des β-Cyclodextrinderivats angegeben ist.

[3] = phosphate buffer, pH 6.6
Description: Die in den Beispielen genannte Phosphatpuffer-Lösung hatte einen pH-Wert von 6.6 und folgende Zusammensetzung:

[4] = Dissolution rate of medroxyprogesterone acetate from tablets; format: physicochemical; conditions: tablet with Hydroxyethyl-β-cyclodextrin (MS 0.43) versus same tablet excipients without β-cyclodextrin ether
Method: In 100 ml Wasser wurden 7 g Hydroxyethyl-β-cyclodextrin (MS 0.43) sowie 0,5 g Medroxyprogesteronacetat gelöst. Anschließend wurde das Wasser auf einem Rotationsverdampfer abgezogen. Der Rückstand […] wurde pulverisiert und mit 366 mg Calcium-hydrogenphosphat. 2H2O, 60 mg Maisstärke, 120 mg Cellulosepulver(mikrokristallin), 4,2 mg hochdisperse Kieselsäure (Aerosil® 200) und 4,8 mg Magnesiumstearat zu Tabletten mit einem Endgewicht von 630,0 mg und pro Einzeldosis 5 mg Wirkstoff verarbeitet. Die Lösungsgeschwindigkeit des Medroxyprogesteronacetats aus dieser Zubereitung ist etwa 21 mal höher als bei Einsatz der gleichen Tablettenhilfsstoffe ohne Zusatz des β-Cyclodextrinethers.

Ratten = experiment: Acute intravenous toxicity in rats; format: in vivo; conditions: rat, i.v.
Description: (§1) Die akute intravenöse Toxizität von einigen β-Cyclodextrinen wurde an Ratten untersucht, wobei die nachfolgenden Ergebnisse erhalten wurden. Dabei zeigte sich, daß die Toxizität der erfindungsgemäß eingesetzten Derivate überraschend eine ganze Größenordnung niedriger ist. Tabelle 5

[5] = test system: roten Blutkörperchen (menschlichen Ursprungs); format: cell-based; conditions: human, 30 min
Method: In einer weiteren Versuchsreihe wurde die hämolytische Wirkung der Methylether gemäß DE-A-3 118 218 mit derjenigen eines erfindungsgemäß verwendeten Ethers verglichen. Dazu wurden 100 µl einer physiologischen Kochsalzlösung mit einem Cyclodextringehalt von 10 %, 800 µl eines Puffers (400 mg MOPS, 36 mg Na2HPO4·2 H2O, 1,6 g NaCl in 200 ml H2O) und 100 µl einer Suspension von roten Blutkörperchen (menschlichen Ursprungs, dreimal mit Kochsalzlösung gewaschen), 30 Min. lang bei 37°C gemischt. Anschließend wurde zentrifugiert und die Extinktion bei 540 mn bestimmt.
Kontrollen: • a) 100 µl Kochsalzlösung + Puffer → 0 % Hämolyse • b) 900 µl Wasser → 100 % Hämolyse
Die gefundenen Ergebnisse sind in der nachfolgenden Tabelle 6 zusammengefaßt, wobei die Konzentrationen angegeben sind, bei denen eine 50 %-ige bzw. eine 100 % Hämolyse stattfand. Tabelle 6

[6] = with the 2,6-Di-O-methylderivat of β-cyclodextrin; cited from earlier work
[7] = Acute intravenous toxicity in rats; format: in vivo, Ratten; conditions: rat, in vivo, iv
Description: as §1

[8] = in water; cited from earlier work
[9] = Storage stability of indometacin solutions at 21°C, HPLC content; format: physicochemical; conditions: aqueous buffer; concentration of the saturated solution in phosphate buffer (solution A); read-out: gesättigte Lösung in Phosphatpufferlösung
Method: In 10 ml Phosphatpufferlösung wurden bei 25°C 0,7 g Hydroxyethyl-β-cyclodextrin (MS 0.43) und 0,04 g Indometacin bis zur klaren Lösung eingearbeitet. Diese wurde durch ein Membranfilter (0,22 µm) filtriert und unter Laminarflow in eine vorsterilisierte Injektionsflasche abgefüllt, die bei 21°C eingelagert wurde (B). Parallel dazu wurde eine gesättigte Indometaeinlösung in Phosphatpufferlösung (0,21 mg/ml) unter gleichen Bedingungen aufbewahrt (A). Die hochdruckflüssigkeitschromatographisch ermittelten Wirkstoff-Konzentrationen sind in Tabelle 3 wiedergegeben. Die wesentlich verbesserte Stabilität des erfindungsgemäßen Präparates ist offensichtlich. Tabelle 3

[10] = in water, 4 % Hydroxypropyl-methyl-β-cyclodextrin

CC(=O)[C@H]1CC[C@H]2[C@@H]3CCC4=CC(=O)CC[C@]4(C)[C@H]3CC[C@]12C [Progesteron]
Verh.S1 zu S2 [1]: 1083,0 | solubility thermodynamic at 24 h ([1]; 10% hp-beta-cd, pH 6.6): 7690 µg/mL (≈ 24500 µM) | solubility thermodynamic at 24 h ([1]; pH 6.6, aqueous buffer): 7.1 µg/mL (≈ 22.6 µM)

Tubulazol
Verhältnis R von Sättigungslöslichkeit mit und ohne Zusatz des β-Cyclodextrinderivats [2, 10]: 43

Hydroxyethyl-β-cyclodextrin [Hydroxyethyl-β-cyclodextrin (MS 0.43)]
Sättigungslöslichkeit des Cyclodextrinderivates im Puffer [3]: 7,2 g/100 ml

CC(=O)OC1(C(C)=O)CCC2C3CC(C)C4=CC(=O)CCC4(C)C3CCC21C (stereo not drawn) [Medroxyprogesteronacetat]
Lösungsgeschwindigkeit [4]: ~21 mal höher

Levocabastin
Verhältnis R von Sättigungslöslichkeit mit und ohne Zusatz des β-Cyclodextrinderivats ([2]; pH 7,4, 4 % Hydroxypropyl-methyl-β-cyclodextrin): 8 | Verhältnis R von Sättigungslöslichkeit mit und ohne Zusatz des β-Cyclodextrinderivats ([2]; pH 9,5, 4 % Hydroxypropyl-methyl-β-cyclodextrin): 81

CN1C(=O)CN=C(c2ccccc2)c2cc(Cl)ccc21 [Diazepam]
Verh.S1 zu S2 [1]: 29,4

Hydroxypropyl-methyl-β-cyclodextrin
LD50 bei Ratten (i.v.) (Ratten): > 2000* mg/kg Körpergewicht | C50 % (Konzentration, bei der eine 50 %-ige Hämolyse stattfand) [5]: 1,5% | C100 % (Konzentration, bei der eine 100 % Hämolyse stattfand) [5]: 4% | hämolytische Wirkung [5]: 5 bis 8 mal geringer

CN(C)C(=O)C(CCN1CCC(O)(c2ccc(Cl)cc2)CC1)(c1ccccc1)c1ccccc1 [Loperamid]
Verhältnis R von Sättigungslöslichkeit mit und ohne Zusatz des β-Cyclodextrinderivats [2, 10]: 62

CCOC(=O)c1cncn1[C@H](C)c1ccccc1 [Etomidat]
Verhältnis R von Sättigungslöslichkeit mit und ohne Zusatz des β-Cyclodextrinderivats [2, 10]: 8,5

C[C@H]1O[C@@H](O[C@H]2[C@@H](O)C[C@H](O[C@H]3[C@@H](O)C[C@H](O[C@H]4CC[C@@]5(C)[C@H](CC[C@@H]6[C@@H]5CC[C@]5(C)[C@@H](C7=CC(=O)OC7)CC[C@]65O)C4)O[C@@H]3C)O[C@@H]2C)C[C@H](O)[C@@H]1O [Digitoxin]
Steigerung der Löslichkeit in Wasser [6]: 81,6 -fache

Fc1ccc(C(c2ccc(F)cc2)N2CCN(C/C=C/c3ccccc3)CC2)cc1 [Flunarizin]
Verhältnis R von Sättigungslöslichkeit mit und ohne Zusatz des β-Cyclodextrinderivats [2, 10]: 18

CC(=O)N1CCN(c2ccc(OCC3COC(Cn4ccnc4)(c4ccc(Cl)cc4Cl)O3)cc2)CC1 (stereo not drawn) [Ketoconazol]
Verhältnis R von Sättigungslöslichkeit mit und ohne Zusatz des β-Cyclodextrinderivats [2]: 85

OC[C@H]1O[C@@H]2O[C@H]3[C@H](O)[C@@H](O)[C@@H](O[C@H]4[C@H](O)[C@@H](O)[C@@H](O[C@H]5[C@H](O)[C@@H](O)[C@@H](O[C@H]6[C@H](O)[C@@H](O)[C@@H](O[C@H]7[C@H](O)[C@@H](O)[C@@H](O[C@H]8[C@H](O)[C@@H](O)[C@@H](O[C@H]1[C@H](O)[C@H]2O)O[C@@H]8CO)O[C@@H]7CO)O[C@@H]6CO)O[C@@H]5CO)O[C@@H]4CO)O[C@@H]3CO [β-Cyclodextrin]
LD50 [7]: 453 mg/kg | Wasserlöslichkeit [8]: 1,8 g pro 100 ml

COc1cc(N)c(Cl)cc1C(=O)NC1CCN(CCCOc2ccc(F)cc2)CC1OC (stereo not drawn) [Cisaprid]
Verhältnis R von Sättigungslöslichkeit mit und ohne Zusatz des β-Cyclodextrinderivats [2]: 3

COC(=O)Nc1nc2cc(C(=O)c3ccc(F)cc3)ccc2[nH]1 [Flubendazol]
Verhältnis R von Sättigungslöslichkeit mit und ohne Zusatz des β-Cyclodextrinderivats [2, 10]: 30

C[C@@H]1C[C@H]2[C@@H]3CCC4=CC(=O)C=C[C@]4(C)[C@@]3(F)[C@@H](O)C[C@]2(C)[C@@]1(O)C(=O)CO [Dexamethason]
Verh.S1 zu S2 [1]: 172,0 | solubility thermodynamic at 24 h ([1]; 10% hp-beta-cd, pH 6.6): 14300 µg/mL (≈ 36400 µM) | solubility thermodynamic at 24 h ([1]; pH 6.6, aqueous buffer): 83 µg/mL (≈ 211 µM)

Dimethyl-β-cyclodextrin [Dimethyl-β-cyclodextrin (DS = 2,0)]
LD50 bei Ratten (i.v.) (Ratten): 200 - 207 mg/kg Körpergewicht | C50 % (Konzentration, bei der eine 50 %-ige Hämolyse stattfand) [5]: 0,33% | C100 % (Konzentration, bei der eine 100 % Hämolyse stattfand) [5]: 0,5%

CCC(C)n1ncn(-c2ccc(N3CCN(c4ccc(OCC5COC(Cn6cncn6)(c6ccc(Cl)cc6Cl)O5)cc4)CC3)cc2)c1=O (stereo not drawn) [Itraconazol]
Verhältnis R von Sättigungslöslichkeit mit und ohne Zusatz des β-Cyclodextrinderivats ([2]; pH 2): 75 | Verhältnis R von Sättigungslöslichkeit mit und ohne Zusatz des β-Cyclodextrinderivats ([2]; pH 5): 96

Methyl-β-CD [Methyl-β-CD (DS = 1,79)]
C50 % (Konzentration, bei der eine 50 %-ige Hämolyse stattfand) [5]: 0,53% | C100 % (Konzentration, bei der eine 100 % Hämolyse stattfand) [5]: 0,8%

COc1ccc2c(c1)c(CC(=O)O)c(C)n2C(=O)c1ccc(Cl)cc1 [Indometacin]
Verh.S1 zu S2 [1]: 30,1 | solubility thermodynamic at 24 h ([1]; 10% hp-beta-cd, pH 6.6): 5720 µg/mL (≈ 16000 µM) | solubility thermodynamic at 24 h ([1]; pH 6.6, aqueous buffer): 190 µg/mL (≈ 531 µM) | solubility [9]: 210 µg/mL (≈ 587 µM)

Reference: patent publication EP0149197B2, “Pharmaceutical compositions containing drugs which are sparingly soluble in water or instable and methods for their preparation” (priority 1983, dated 1985)
